# Source: patent publication US20080299060A1, “Pharmaceutical Composition for the Treatment of Nail Diseases” (TLT MEDICAL LTD., priority 2006, published 2008)
# Test: In-vitro nail permeation assay (Franz type diffusion cells)
# Format: in vitro ADME, human
# Conditions: for Mean value of terbinafine concentration in the 5 mL receptor chamber of the Franz cell, Day 3 / Mean value of terbinafine concentration in the 5 mL receptor chamber of the Franz cell, Day 5: n=3
# From the text: Permeation fluxes of active substances, determined from nail permeation assays, are used to predict the efficacy of the active substances in a clinical situation. A permeation assay similar to the one reported by Franz (T. J. Franz, Dermatology, 184, 18-20, 1992) was used to investigate the applicability of the present invention to the treatment of onychomycosis and, in particular, to evaluate the permeation fluxes of a terbinafine containing pharmaceutical composition and a protective layer in laser pre-treated human cadaver great toenails. The experimental setup emulates the clinical situation where the pharmaceutical composition remains liquid for an extended period of time inside the nail holes in the case of laser pretreated nails to maximize the diffusion of the terbinafine into the nail.
# Human cadaver great toenails selected for the tests were soaked in physiological buffer solution for several hours before starting the assay. Nails were prepared for the assay by removal of epidermal residues on the ventral side. Round nail discs of 16 mm in diameter were punched. […] Nails were masked on the dorsal side by a silicon mounting ring leaving a nail area of 10 mm in diameter where the nails were exposed to the pharmaceutical composition and the protective layer.
# Three groups of nail samples were investigated.
# Group 1: Untreated nail samples were used in this group which is the control group. These nails were exposed to 25 μL of a lacquer containing 9% w/w terbinafine once a day.
# (§1) Group 2: In this group perforated nails were used. These nails were exposed to 25 μL of a 10% w/w terbinafine in ethanol solution once a day. After the application of the 10% w/w ethanolic solution to these nails, nails were covered with 25 μL of a lacquer containing 9% w/w terbinafine to form the protective layer according to the present invention.
# as §1, with “3:” for “2:”, “nails, these” for “nails,”, “without” for “containing 9% w/w”
# Franz type diffusion cells made of glass were used in the assays having a volume of ca. 5 mL using demineralized water as receptor buffer. Nail samples were fixed on the Franz cells with sealing silicone and Teflon discs pressed with a metallic spring loading system. In this way the ventral sides of the nails were in contact with demineralized water in the cell while the dorsal sides were in contact with the pharmaceutical formulations and protective layer according to Table 1. Diffusion cells were kept at 32° C. during the permeation assays.
# Cleaning of the nail sample and dissolution of previous layers of pharmaceutical composition and protective layers were performed prior to every reapplication of the pharmaceutical composition and the protective layer. For this purpose 100 microliters of dissolvent were applied to every nail sample. Subsequently, the nail samples were rubbed with a cleaning brush to ensure an exhaustive cleaning and then were dried with a cotton swab to remove with the dissolvent also the old components of the pharmaceutical solution and the protective layer. 25 microliters of the pharmaceutical composition were then applied to the exposed nail area and distributed with the application brush.
# Samples of receptor fluid were collected at various time points and analyzed by liquid chromatography and mass spectroscopy. The removed sample volume was replaced by demineralized water. This dilution effects were accounted in the final determination of the permeation fluxes.
# [1] = Group 1 (control): untreated nails, 9% w/w terbinafine lacquer once a day, dissolvent ethanol, 32° C.
# [2] = Group 2: laser pretreated nails (400 partial orifices/cm^2), 10% w/w terbinafine in ethanol once a day, protective layer 9% w/w terbinafine lacquer
# [3] = Group 3: laser pretreated nails (400 partial orifices/cm^2), 10% w/w terbinafine in ethanol once a day, protective layer lacquer without terbinafine
structure (smiles),measurement,setting,value
CN(C/C=C/C#CC(C)(C)C)Cc1cccc2ccccc12 [terbinafine],Permeation Fluxes,"Group 1 (control): untreated nails, 9% w/w terbinafine lacquer once a day, dissolvent ethanol",4.34 ng/cm^2/h
same,"Mean value of terbinafine concentration in the 5 mL receptor chamber of the Franz cell, Day 3",[1],82.4 ng/mL
same,"Mean value of terbinafine concentration in the 5 mL receptor chamber of the Franz cell, Day 5",[1],115.1 ng/mL
same,increase in the permeation fluxes as compared to the control group (group 1),Group 2 (protective layer also contains terbinafine) vs group 1,34 fold
same,"Mean value of terbinafine concentration in the 5 mL receptor chamber of the Franz cell, Day 3",[2],305.2 ng/mL
same,"Mean value of terbinafine concentration in the 5 mL receptor chamber of the Franz cell, Day 5",[2],1432.9 ng/mL
same,Permeation Fluxes,"Group 2: laser pretreated nails, 10% w/w terbinafine in ethanol once a day, protective layer 9% w/w terbinafine lacquer",149.6 ng/cm^2/h
same,increase in the permeation fluxes as compared to the control group (group 1),Group 3 (protective layer does not contain terbinafine) vs group 1,5 fold
same,"Mean value of terbinafine concentration in the 5 mL receptor chamber of the Franz cell, Day 3",[3],94.5 ng/mL
same,"Mean value of terbinafine concentration in the 5 mL receptor chamber of the Franz cell, Day 5",[3],272.6 ng/mL
same,Permeation Fluxes,"Group 3: laser pretreated nails, 10% w/w terbinafine in ethanol once a day, protective layer lacquer without terbinafine",23.6 ng/cm^2/h
